From article PMC2852246 (Journal of nuclear medicine : official publication, Society …, 2010)
“And” between values parts separate entries of the source, which are not always exact repeats. Equal values may be shown once. Read-outs that look alike come from different tables or passages of the source. Values belong to the molecule of their own block, whether it stands above or below them.

Tests used:
[1] = single dose of 10 mg, eight human volunteers; cited from earlier work
[2] = determined by Health Canada; cited from earlier work
[3] = cited from earlier work
[4] = 106 subjects referred for potential kidney donation; cited from earlier work
[5] = earlier study of 106 subjects referred for potential kidney donation; cited from earlier work
[6] = cited from earlier work; remark: listed apart in the source
[7] = Percentage injected dose in the urine of healthy volunteers; assay type: in vivo, human
[8] = Renal imaging and renogram parameters; assay type: in vivo, human
[9] = Percentage uptake in erythrocytes; assay type: in vitro ADME, human; conditions: healthy volunteers, no correction for trapped plasma, mean ± SD
[10] = Plasma protein binding by ultracentrifugation; assay type: in vitro ADME, human; conditions: healthy volunteers, mean ± SD
[11] = cortical (parenchymal) region of interest, left kidney, n = 9
[12] = cortical (parenchymal) region of interest, right kidney, n = 9
[13] = whole-kidney region of interest, relative uptake, n = 9, mean (SD)

SMILES: O=C(O)CN(CC(=O)O)CC(=O)O [NTA, Nitrilotriacetic acid]
adverse effects after ingestion [1]: No adverse effects
acceptable daily intake in drinking water [2]: 10 μg/kg of body weight per day

SMILES: O=C([O-])CN(CCN(CC(=O)[O-])CC(=O)[O-])CCN(CC(=O)[O-])CC(=O)[O-].[99Tc+4] [^99mTc-DTPA, ^99mTc-diethyltriaminepentaacetic acid]
extraction fraction [3]: 20%

SMILES: O=C([O-])CN=C([O-])CN=C([O-])CN=C([O-])C[S-].[O-2].[Tc+4] [^99mTc-MAG3, ^99mTc-mercaptoacetyltriglycine]
extraction fraction [3]: 40%-60%
camera-based clearance [4]: 321 ± 69 mL/min/1.73 m^2
cortical 20 min/max [5]: 0.19
clearance as percentage of the clearance of 131I-OIH [6]: 50%-60%
plasma clearance as percentage of the 131I-OIH clearance ([6]; multiple studies): 50–60%

percent injected dose in the urine at 30 min ([7]; 30 min after injection): 69 ± 11%
percent injected dose in the urine at 180 min (3 h) ([7]; 180 min after injection): 91 ± 6%
Left cortical TTP [8, 11]: 2.46 ± 0.73 min
Left cortical TTP (min) [8, 11]: 2.46 (0.73) min
Right cortical TTP [8, 12]: 1.98 ± 0.60 min
Right cortical TTP (min) [8, 12]: 1.98 (0.6) min
cortical 20 min/max ([8]; healthy volunteers, kidney side not specified): 0.10
Left kidney 20 min/max ([8]; whole-kidney region of interest, 20 min-to-maximum count ratio, n = 9, mean (SD)): 0.11 (0.03)
Right kidney TTP (min) ([8]; whole-kidney region of interest, n = 9, mean (SD)): 2.8 (1.6) min
Left kidney Uptake % [8, 13]: 49.0 ± 4.1% and 49.0 (4.1) %
Right kidney Uptake % [8, 13]: 51.0 (4.1) %
Left kidney TTP (min) ([8]; whole-kidney region of interest, time to peak of renogram, n = 9, mean (SD)): 2.6 (0.6) min
red cell uptake [9]: 17 ± 5%
plasma protein binding [10]: 75 ± 3%
SMILES: O=C(O)CNC(=O)c1ccccc1[131I] [^131I-OIH, ^131I ortho-iodohippuran]
mean plasma clearance ([6]; earlier study of healthy volunteers): 530 mL/min
